The source made the active and inactive calls. No cut-off for these calls is given here. Residues, ends and D or L forms follow the SMILES beside them. *: point of attachment. X2 = CCCCCCCCCCCCCNC(=O)CCC*; X1 = CCCCCCCCCCNC(=O)CCC*; X3 = CCCCCCCCNC(=O)CCC*
Columns and labels:
[1] = molecular target: T1, NAD-dependent protein deacylase sirtuin-6 (Homo sapiens, UniProt Q8N6T7); assay: Inhibition of human SIRT6 (1 to 294 residues) expressed in Escherichia coli Rosetta (DE3) using H3K9AcWW as substrate preincubated for 15 mins followed by substrate addition measured after 1 hr by HPLC analysis
T1 sequence (Q8N6T7 whole entry, the tested form may be a part): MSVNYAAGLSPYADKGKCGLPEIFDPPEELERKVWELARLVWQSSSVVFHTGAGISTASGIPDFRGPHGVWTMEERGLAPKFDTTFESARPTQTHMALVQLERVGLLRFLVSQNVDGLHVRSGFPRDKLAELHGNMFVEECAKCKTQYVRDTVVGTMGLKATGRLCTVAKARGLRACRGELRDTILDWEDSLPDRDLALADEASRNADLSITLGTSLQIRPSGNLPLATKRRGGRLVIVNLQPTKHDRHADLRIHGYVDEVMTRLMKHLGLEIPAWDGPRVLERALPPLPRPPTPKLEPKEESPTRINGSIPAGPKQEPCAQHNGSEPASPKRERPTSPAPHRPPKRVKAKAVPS

[2] = molecular target: T2, NAD-dependent protein deacetylase sirtuin-1 (Homo sapiens) (UniProt Q96EB6); assay: Inhibition of human SIRT1 expressed in Escherichia coli BL21 at 333 uM using H3K9AcWW as substrate preincubated for 15 mins followed by substrate addition measured after 1 hr by HPLC analysis relative to control
T2 sequence (whole entry): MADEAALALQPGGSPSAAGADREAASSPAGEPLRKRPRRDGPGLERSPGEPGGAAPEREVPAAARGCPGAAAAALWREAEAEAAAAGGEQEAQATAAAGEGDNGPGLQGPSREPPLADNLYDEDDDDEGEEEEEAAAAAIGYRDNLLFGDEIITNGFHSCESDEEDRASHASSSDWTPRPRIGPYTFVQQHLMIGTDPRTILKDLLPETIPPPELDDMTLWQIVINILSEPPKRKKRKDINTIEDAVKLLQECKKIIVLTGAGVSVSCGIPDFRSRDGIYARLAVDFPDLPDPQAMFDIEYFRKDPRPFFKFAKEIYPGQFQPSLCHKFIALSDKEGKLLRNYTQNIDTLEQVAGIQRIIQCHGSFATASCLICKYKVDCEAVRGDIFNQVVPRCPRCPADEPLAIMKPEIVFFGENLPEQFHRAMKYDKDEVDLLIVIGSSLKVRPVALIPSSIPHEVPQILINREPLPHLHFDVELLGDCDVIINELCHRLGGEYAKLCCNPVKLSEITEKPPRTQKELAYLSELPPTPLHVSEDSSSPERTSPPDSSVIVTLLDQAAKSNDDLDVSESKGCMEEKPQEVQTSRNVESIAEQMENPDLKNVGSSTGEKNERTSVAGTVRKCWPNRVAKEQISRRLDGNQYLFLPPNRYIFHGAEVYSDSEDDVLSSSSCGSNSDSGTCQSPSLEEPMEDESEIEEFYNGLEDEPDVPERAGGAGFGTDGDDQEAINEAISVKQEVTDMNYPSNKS

[3] = molecular target: T3, NAD-dependent protein deacetylase sirtuin-2 (Homo sapiens) (UniProt Q8IXJ6); assay: Inhibition of human N-terminal His6-SUMO-tagged SIRT2 (38 to 356 residues) expressed in Escherichia coli BL21 at 333 uM using H3K9AcWW as substrate preincubated for 15 mins followed by substrate addition measured after 1 hr by HPLC analysis relative to control
T3 sequence (whole entry): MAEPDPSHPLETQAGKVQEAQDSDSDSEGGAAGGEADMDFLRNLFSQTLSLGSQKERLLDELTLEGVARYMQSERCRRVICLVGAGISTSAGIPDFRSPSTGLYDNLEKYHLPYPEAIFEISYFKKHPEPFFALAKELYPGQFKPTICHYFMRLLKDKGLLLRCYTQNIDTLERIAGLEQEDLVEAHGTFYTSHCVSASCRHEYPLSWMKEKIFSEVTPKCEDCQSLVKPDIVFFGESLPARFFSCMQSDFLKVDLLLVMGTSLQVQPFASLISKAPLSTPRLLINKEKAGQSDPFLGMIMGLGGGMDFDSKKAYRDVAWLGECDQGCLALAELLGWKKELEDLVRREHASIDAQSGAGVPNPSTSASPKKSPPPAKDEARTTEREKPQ

[4] = molecular target: T4, NAD-dependent protein deacetylase sirtuin-3, mitochondrial (Homo sapiens) (UniProt Q9NTG7); assay: Inhibition of human SIRT3 expressed in Escherichia coli BL21 at 333 uM using H3K9AcWW as substrate preincubated for 15 mins followed by substrate addition measured after 1 hr by HPLC analysis relative to control
T4 sequence (whole entry): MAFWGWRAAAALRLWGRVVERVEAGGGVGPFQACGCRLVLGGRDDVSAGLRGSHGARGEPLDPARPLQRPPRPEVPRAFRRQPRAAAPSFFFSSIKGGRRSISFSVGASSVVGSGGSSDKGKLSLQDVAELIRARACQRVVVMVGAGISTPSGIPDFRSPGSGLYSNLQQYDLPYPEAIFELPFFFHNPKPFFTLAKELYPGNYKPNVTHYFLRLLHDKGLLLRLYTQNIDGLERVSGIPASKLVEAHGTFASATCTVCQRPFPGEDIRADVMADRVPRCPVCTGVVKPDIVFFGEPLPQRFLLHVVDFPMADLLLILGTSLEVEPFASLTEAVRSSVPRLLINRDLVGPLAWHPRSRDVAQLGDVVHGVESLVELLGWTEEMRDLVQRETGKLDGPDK

[5] = molecular target: T5, NAD-dependent protein deacylase sirtuin-5, mitochondrial (Homo sapiens, UniProt Q9NXA8); assay: Inhibition of human SIRT5 expressed in Escherichia coli BL21 at 333 uM using H3K9AcWW as substrate preincubated for 15 mins followed by substrate addition measured after 1 hr by HPLC analysis relative to control
Target sequence in this assay (Q9NXA8 37-310 limits assumed): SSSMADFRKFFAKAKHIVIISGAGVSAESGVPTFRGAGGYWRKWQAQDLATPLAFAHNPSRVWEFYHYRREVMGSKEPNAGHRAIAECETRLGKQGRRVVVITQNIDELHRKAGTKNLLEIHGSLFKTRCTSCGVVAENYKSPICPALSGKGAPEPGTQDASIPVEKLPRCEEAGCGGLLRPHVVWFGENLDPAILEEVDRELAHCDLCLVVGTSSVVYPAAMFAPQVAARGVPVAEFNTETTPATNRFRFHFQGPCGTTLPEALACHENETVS

[6] = molecular target: T1, NAD-dependent protein deacylase sirtuin-6; assay: Inhibition of human SIRT6 (1 to 294 residues) expressed in Escherichia coli Rosetta (DE3) at 333 uM using H3K9AcWW as substrate preincubated for 15 mins followed by substrate addition measured after 1 hr by HPLC analysis relative to control
[7] = molecular target: T2, NAD-dependent protein deacetylase sirtuin-1 (Homo sapiens); assay: Inhibition of human SIRT1 expressed in Escherichia coli BL21 at 250 uM using H3K9AcWW as substrate preincubated for 15 mins followed by substrate addition measured after 1 hr by HPLC analysis relative to control
[8] = molecular target: T5, NAD-dependent protein deacylase sirtuin-5, mitochondrial; assay: Inhibition of human SIRT5 expressed in Escherichia coli BL21 at 250 uM using H3K9AcWW as substrate preincubated for 15 mins followed by substrate addition measured after 1 hr by HPLC analysis relative to control
Target sequence in this assay (Q9NXA8 37-310 limits assumed): as above

[9] = molecular target: T1, NAD-dependent protein deacylase sirtuin-6; assay: Inhibition of human SIRT6 (1 to 294 residues) expressed in Escherichia coli Rosetta (DE3) at 250 uM using H3K9AcWW as substrate preincubated for 15 mins followed by substrate addition measured after 1 hr by HPLC analysis relative to control
[10] = molecular target: T6, NAD-dependent protein deacetylase sirtuin-1 (Homo sapiens, UniProt Q96EB6); assay: Inhibition of human SIRT1 expressed in Escherichia coli BL21 using H3K9AcWW as substrate preincubated for 15 mins followed by substrate addition measured after 1 hr by HPLC analysis
T6 sequence (Q96EB6 whole entry): T2 sequence (whole entry)

[11] = molecular target: T7, NAD-dependent protein deacetylase sirtuin-2 (Homo sapiens, UniProt Q8IXJ6); assay: Inhibition of human N-terminal His6-SUMO-tagged SIRT2 (38 to 356 residues) expressed in Escherichia coli BL21 using H3K9AcWW as substrate preincubated for 15 mins followed by substrate addition measured after 1 hr by HPLC analysis
T7 sequence (Q8IXJ6 whole entry): T3 sequence (whole entry)

[12] = molecular target: T8, NAD-dependent protein deacetylase sirtuin-3, mitochondrial (Homo sapiens, UniProt Q9NTG7); assay: Inhibition of human SIRT3 expressed in Escherichia coli BL21 using H3K9AcWW as substrate preincubated for 15 mins followed by substrate addition measured after 1 hr by HPLC analysis
T8 sequence (Q9NTG7 whole entry): T4 sequence (whole entry)

[13] = molecular target: T5, NAD-dependent protein deacylase sirtuin-5, mitochondrial; assay: Inhibition of human SIRT5 expressed in Escherichia coli BL21 using H3K9AcWW as substrate preincubated for 15 mins followed by substrate addition measured after 1 hr by HPLC analysis
Target sequence in this assay (Q9NXA8 whole entry, the tested form may be a part): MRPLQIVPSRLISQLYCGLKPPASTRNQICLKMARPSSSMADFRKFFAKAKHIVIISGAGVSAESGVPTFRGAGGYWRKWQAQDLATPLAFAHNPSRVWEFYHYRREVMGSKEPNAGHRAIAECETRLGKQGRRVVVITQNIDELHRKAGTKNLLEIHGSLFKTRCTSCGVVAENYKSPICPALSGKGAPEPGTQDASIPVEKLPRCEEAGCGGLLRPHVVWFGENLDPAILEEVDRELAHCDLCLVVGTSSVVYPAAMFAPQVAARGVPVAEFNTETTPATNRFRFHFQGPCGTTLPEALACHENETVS

[14] = molecular target: T3, NAD-dependent protein deacetylase sirtuin-2 (Homo sapiens); assay: Inhibition of human N-terminal His6-SUMO-tagged SIRT2 (38 to 356 residues) expressed in Escherichia coli BL21 at 250 uM using H3K9AcWW as substrate preincubated for 15 mins followed by substrate addition measured after 1 hr by HPLC analysis relative to control
Homo sapiens [15] = species on record: Homo sapiens; assay: Selectivity ratio of IC50 for human SIRT1 expressed in Escherichia coli BL21 to IC50 for human N-terminal His6-SUMO-tagged SIRT2 (38 to 356 residues) expressed in Escherichia coli BL21
Homo sapiens [16] = species on record: Homo sapiens; assay: Selectivity ratio of IC50 for human SIRT3 expressed in Escherichia coli BL21 to IC50 for human N-terminal His6-SUMO-tagged SIRT2 (38 to 356 residues) expressed in Escherichia coli BL21
Homo sapiens [17] = species on record: Homo sapiens; assay: Selectivity ratio of IC50 for human SIRT5 expressed in Escherichia coli BL21 to IC50 for human N-terminal His6-SUMO-tagged SIRT2 (38 to 356 residues) expressed in Escherichia coli BL21
Homo sapiens [18] = species on record: Homo sapiens; assay: Selectivity ratio of IC50 for human SIRT6 (1 to 294 residues) expressed in Escherichia coli Rosetta (DE3) to human N-terminal His6-SUMO-tagged SIRT2 (38 to 356 residues) expressed in Escherichia coli BL21
[19] = molecular target: T3, NAD-dependent protein deacetylase sirtuin-2 (Homo sapiens); assay: Competitive inhibition of human N-terminal His6-SUMO-tagged SIRT2 (38 to 356 residues) expressed in Escherichia coli BL21 at 5 to 10 uM using H3K9AcWW as substrate assessed as increase in substrate Km preincubated for 15 mins followed by substrate addition measured after 1 hr by double-reciprocal plot analysis

Row | Structure (SMILES) | IC50 [1] [µM] | inhibition [2] | inhibition [3] | inhibition [4] | inhibition [5] | inhibition [6] | IC50 [12] [µM] | IC50 [13] [µM] | also measured
1 | NC(=O)CCCCC[C@H](N)C(=O)O | 20.9 | – | – | – | – | – | – | – | –
2 | O=C(O)CCNC(=O)CCCSC[C@H](NC(=O)OCc1ccccc1)C(=O)Nc1ccccc1 | – | inactive | inactive | inactive | inactive | 43% | – | – | –
3 | O=C(CCCSC[C@H](NC(=O)OCc1ccccc1)C(=O)Nc1ccccc1)NCc1ccc([N+](=O)[O-])cc1 | – | inactive | inactive | 15% | inactive | inactive | – | – | –
4 | CCCCCCCCCCCCCNC(=O)CCCSC[C@H](NC(=O)OCc1ccccc1)C(=O)Nc1ccccc1 | – | inactive | 20% | inactive | inactive | 31% | – | – | –
5 | CCCCCCCCCCNC(=O)CCCSC[C@H](NC(=O)OCc1ccccc1)C(=O)Nc1ccccc1 | – | inactive | 61% | 14% | 24% | 28% | – | – | –
6 | CCCCNC(=O)CCCSC[C@H](NC(=O)OCc1ccccc1)C(=O)Nc1ccccc1 | – | inactive | 25% | inactive | inactive | 26% | – | – | –
7 | O=C(CCCSC[C@H](NC(=O)OCc1ccccc1)C(=O)Nc1ccccc1)NCc1ccccc1 | – | inactive | 47% | 11% | 34% | 30% | – | – | –

Second part, led by results:

Row | IC50 [1] [µM] | inhibition [2] | inhibition [3] | inhibition [4] | inhibition [5] | inhibition [6] | IC50 [12] [µM] | IC50 [13] [µM] | Structure (SMILES) | also measured
8 | – | inactive | inactive | inactive | inactive | 35% | – | – | O=C(O)CCCNC(=O)CCCSC[C@H](NC(=O)OCc1ccccc1)C(=O)Nc1ccccc1 | –
9 | > 500 | – | – | – | – | – | > 500 | > 500 | CCCCCCCCNC(=O)CCCSC[C@H](NC(=O)[C@H](CCCNC(=N)N)NC(=O)[C@H](C)NC(=O)[C@@H](NC(=O)[C@H](CCC(N)=O)NC(=O)[C@@H](N)CCCCN)[C@@H](C)O)C(=O)N[C@@H](CO)C(=O)N[C@H](C(=O)NCC(=O)NCC(=O)N[C@@H](CCCCN)C(=O)O)[C@@H](C)O (H-KQTARC(X3)STGGK-OH) | inhibition [7]: 23%; inhibition [8]: inactive; inhibition [9]: inactive; IC50 [10]: > 300 µM; IC50 [11]: 237 µM; inhibition [14]: 66%
10 | > 200 | – | – | – | – | – | > 200 | > 200 | CCCCCCCCCCCCCC(=S)NCCCC[C@H](NC(=O)OCc1ccccc1)C(=O)Nc1ccccc1 | –
11 | > 250 | – | – | – | – | – | > 500 | > 500 | CCCCCCCCCCNC(=O)CCCSC[C@H](NC(=O)[C@H](CCCNC(=N)N)NC(=O)[C@H](C)NC(=O)[C@@H](NC(=O)[C@H](CCC(N)=O)NC(=O)[C@@H](N)CCCCN)[C@@H](C)O)C(=O)N[C@@H](CO)C(=O)N[C@H](C(=O)NCC(=O)NCC(=O)N[C@@H](CCCCN)C(=O)O)[C@@H](C)O (H-KQTARC(X1)STGGK-OH) | inhibition [7]: 60%; inhibition [8]: inactive; inhibition [9]: 41%; IC50 [10]: > 200 µM; IC50 [11]: 20 µM; inhibition [14]: 95%; Ratio IC50 (Homo sapiens [15]): > 10; Ratio IC50 (Homo sapiens [16]): > 10; Ratio IC50 (Homo sapiens [17]): > 10; Ratio IC50 (Homo sapiens [18]): > 10; inhibition [19]: Active
12 | > 20 | – | – | – | – | – | > 50 | > 50 | CCCCCCCCCCCCCNC(=O)CCCSC[C@H](NC(=O)[C@H](CCCNC(=N)N)NC(=O)[C@H](C)NC(=O)[C@@H](NC(=O)[C@H](CCC(N)=O)NC(=O)[C@@H](N)CCCCN)[C@@H](C)O)C(=O)N[C@@H](CO)C(=O)N[C@H](C(=O)NCC(=O)NCC(=O)N[C@@H](CCCCN)C(=O)O)[C@@H](C)O (H-KQTARC(X2)STGGK-OH) | inhibition [7]: 67%; inhibition [8]: inactive; inhibition [9]: 54%; IC50 [10]: > 200 µM; IC50 [11]: 35 µM; inhibition [14]: 87%; Ratio IC50 (Homo sapiens [15]): 10; Ratio IC50 (Homo sapiens [16]): 10; Ratio IC50 (Homo sapiens [17]): 10; Ratio IC50 (Homo sapiens [18]): 10
